Earlier results, collected in US7094785B1, “Method of treating polycythemia vera” (Cornell Research Foundation, Inc., priority 2002, dated 2006).
Where a name gives a salt, the structure may show the parent alone.

System: essential thrombocythemia or myelofibrosis

Cc1ccc(NC(=O)c2ccc(CN3CCN(C)CC3)cc2)cc1Nc1nccc(-c2cccnc2)n1 [imatinib mesylate, N-{5-[4-(4-methyl-piperazino-methyl)-benzoylamido]-2-methylphenyl}-4-(3-pyridyl)-2-pyrimidine-amine]
effectiveness in other myeloproliferative disorders: not effective
